Patent US5773225A, “Screening method for the identification of compounds capable of abrogation HIV-1 gag-cyclophilin complex formation” (The Trustees of Columbia University in the City of New York, priority 1994, dated 1998)
Non-standard residues stand in square brackets, D forms with d. Residues, ends and D or L forms follow the SMILES beside them. ξ: configuration not given here. ξNMeBmt = C/C=C/C[C@@H](C)[C@@H](O)C(NC)C(=O)O; NMeL = CN[C@@H](CC(C)C)C(=O)O; NMeV = CN[C@H](C(=O)O)C(C)C; NMeA = CN[C@@H](C)C(=O)O; Abu = CC[C@H](N)C(=O)O; Sar = CNCC(=O)O

B1: Tat protein: Purified Tat protein (HIV-1) (protein, UniProt P04608 1-86, looked up)
Protein Tat: MEPVDPRLEPWKHPGSQPKTACTNCYCKKCCFHCQVCFITKALGISYGRKKRRQRRRAHQNSQTHQASLSKQPTSQPRGDPTGPKE

How the values were obtained:
calcineurin (CN) = conditions: complex with FKBP; cited from earlier work
FKBP = conditions: Bierer et al., 1990; cited from earlier work
CyPs = conditions: Sigal et al., 1991; cited from earlier work
T cell activation = conditions: Sigal et al., 1991; cited from earlier work
CyPA = assay: Yeast GAL4 two hybrid, Gag/mutant fusions versus clone 2.1 (CyPA); type: cell-based, Human; conditions: versus 2.1 / CyPA
From the text: (§1) FIG. 2. The Effect of Mutations in Pr55^gag on the Ability of Gag-GAL4 Fusion Proteins to Activate β-Gal Activity in Yeast Cotransformed with GAL4-CyP Fusion Protein Expression Plasmids. Mutant forms of Pr55^gag were subcloned into pGAL4DB-HG. A schematic of the gag coding sequence is shown, and sequence numbers indicated the nucleotide position in the HXB2C provirus with respect to the 5' end of the 5' long terminal repeat. The names of the mutants indicate the nucleotide sequences deleted or the location of linker inserts. Coding sequences retained by the mutants are shown with a box. Linker insertion mutations are denoted with a triangle. Yeast strain GGY1::171, which carries a GAL1-lacZ fusion gene integrated into the chromosome, was cotransformed with each mutant plasmid against plasmid 2.1 and against plasmid 4.1. Colonies were replica-plated onto nitrocellulose filters and scored for β-gal activity by incubation with X-Gal. Open boxes or triangles indicate that when tested against either 2.1 or 4.1, the mutant had activity equivalent to that of the wild-type (WT) Pr55^gag.
(§2) To localize the portion of Gag that mediates binding to the CyPs, the effect on binding of mutations in the Pr55^gag coding sequence was examined. […] Each of these plasmids encodes a stable fusion protein of the expected size detected on Western blot (Luban et al., 1993). […]

CyPB = assay: Yeast GAL4 two hybrid, Gag/mutant fusions versus clone 4.1 (CyPB); type: cell-based, Human; conditions: versus 4.1 / CyPB
From the text: as §1, §2

lymphocyte = conditions: Viscidi et al., 1989; cited from earlier work

Row | Molecule | binding to and inhibiting CN phosphatase activity as FKBP complex (calcineurin (CN)) | two hybrid interaction with CyPA (in words) (CyPA) | two hybrid interaction with CyPB (in words) (CyPB) | further results
1 | CO[C@H]1C[C@@H]2CC[C@@H](C)[C@@](O)(O2)C(=O)C(=O)N2CCCC[C@H]2C(=O)O[C@H]([C@H](C)C[C@@H]2CC[C@@H](O)[C@H](OC)C2)CC(=O)[C@H](C)/C=C(\C)[C@@H](O)[C@@H](OC)C(=O)[C@H](C)C[C@H](C)/C=C/C=C/C=C/1C [Rapamycin] | not capable of binding CN | – | – | competition with FK506 for binding to FKBP (FKBP): competes with FK506 for binding to FKBP
2 | C=CC[C@@H]1/C=C(\C)C[C@H](C)C[C@H](OC)[C@H]2O[C@@](O)(C(=O)C(=O)N3CCCC[C@H]3C(=O)O[C@H](/C(C)=C/[C@@H]3CC[C@@H](O)[C@H](OC)C3)[C@H](C)[C@@H](O)CC1=O)[C@H](C)C[C@@H]2OC [FK506] | capable of binding to and inhibiting the phosphatase activity of CN | – | – | –
3 | C/C=C/C[C@@H](C)[C@@H](O)C1C(=O)N[C@@H](CC)C(=O)N(C)CC(=O)N(C)[C@@H](CC(C)C)C(=O)N[C@@H](C(C)C)C(=O)N(C)[C@@H](C)C(=O)N[C@@H](C)C(=O)N[C@H](C)C(=O)N(C)[C@@H](CC(C)C)C(=O)N(C)[C@@H](CC(C)C)C(=O)N(C)[C@@H](C(C)C)C(=O)N1C (stereo partly shown) [MeAla-CsA] (cyclo(A[dA][NMeL][NMeL][NMeV][ξNMeBmt][Abu][Sar][NMeL]V[NMeA])) | – | – | – | binding to CyPs (CyPs): bind to CyPs; suppression of T cell activation (T cell activation): do not suppress T cell activation
4 | MoMLV Pr65^gag: Gag polyprotein of Moloney murine leukemia virus | – | no detectable activity | no detectable activity | –
5 | MPMV pr76^gag: Gag polyprotein of Mason-Pfizer monkey virus | – | no detectable activity | no detectable activity | –
6 | B1 | – | – | – | antigen-stimulated lymphocyte proliferation (lymphocyte): inhibits
